Measurements: PMC11191600 (ACS chemical neuroscience, 2024)
Converted amounts (≈) assume the structure as drawn. Where two headings read alike, the source gives them in different places.

What was measured:
[1] = molecular target: T1, human dopamine D4.4 receptor (Homo sapiens, UniProt P21917); assay: Human dopamine D4.4 receptor radioligand binding assay (Eurofins); design: % Inhibition at D4.4: dose or concentration left out as unconfirmed; conditions: for % Inhibition at 10 μM D4.4: [3H]Spiperone binding; for inhibition at 10 µM: read-out: % Inhibition at 10 μM D4.4
T1 sequence (P21917 1-419): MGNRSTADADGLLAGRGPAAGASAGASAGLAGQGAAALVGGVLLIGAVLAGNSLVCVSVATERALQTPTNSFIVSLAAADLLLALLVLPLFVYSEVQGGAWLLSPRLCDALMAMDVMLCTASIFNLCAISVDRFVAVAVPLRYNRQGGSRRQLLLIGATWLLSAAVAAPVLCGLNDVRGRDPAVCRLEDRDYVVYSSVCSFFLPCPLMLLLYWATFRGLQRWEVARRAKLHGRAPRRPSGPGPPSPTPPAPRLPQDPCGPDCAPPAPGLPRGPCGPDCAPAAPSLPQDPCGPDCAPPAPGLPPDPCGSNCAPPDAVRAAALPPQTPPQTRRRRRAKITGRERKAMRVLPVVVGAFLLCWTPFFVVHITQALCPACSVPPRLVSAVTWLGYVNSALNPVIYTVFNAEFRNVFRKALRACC

[2] = molecular target: human dopamine D2S receptor (Homo sapiens, UniProt P14416); assay: Human dopamine D2S receptor radioligand binding assay (Eurofins); conditions: for % Inhibition at 10 μM D2S: [3H]Spiperone binding, Eurofins Discovery
human dopamine D2S receptor, sequence (P14416 1-414 isoform P14416-2): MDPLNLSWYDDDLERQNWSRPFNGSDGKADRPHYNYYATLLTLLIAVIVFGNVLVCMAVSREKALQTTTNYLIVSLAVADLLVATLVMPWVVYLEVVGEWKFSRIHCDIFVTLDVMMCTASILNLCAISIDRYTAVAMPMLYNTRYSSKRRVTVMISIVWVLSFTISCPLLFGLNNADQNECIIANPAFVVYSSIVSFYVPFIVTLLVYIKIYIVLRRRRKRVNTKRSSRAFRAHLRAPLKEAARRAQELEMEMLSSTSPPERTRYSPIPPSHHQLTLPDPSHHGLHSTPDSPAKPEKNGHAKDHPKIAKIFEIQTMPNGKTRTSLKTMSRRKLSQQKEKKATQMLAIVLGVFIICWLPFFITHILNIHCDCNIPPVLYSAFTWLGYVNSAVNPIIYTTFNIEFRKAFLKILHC

[3] = molecular target: Human recombinant dopamine D2L receptor (Homo sapiens, UniProt P14416); assay: Human dopamine D2L receptor radioligand binding assay (Eurofins); conditions: for % Inhibition at 10 μM D2L: [3H]Spiperone binding, Eurofins Discovery
Human recombinant dopamine D2L receptor, sequence (P14416 whole entry): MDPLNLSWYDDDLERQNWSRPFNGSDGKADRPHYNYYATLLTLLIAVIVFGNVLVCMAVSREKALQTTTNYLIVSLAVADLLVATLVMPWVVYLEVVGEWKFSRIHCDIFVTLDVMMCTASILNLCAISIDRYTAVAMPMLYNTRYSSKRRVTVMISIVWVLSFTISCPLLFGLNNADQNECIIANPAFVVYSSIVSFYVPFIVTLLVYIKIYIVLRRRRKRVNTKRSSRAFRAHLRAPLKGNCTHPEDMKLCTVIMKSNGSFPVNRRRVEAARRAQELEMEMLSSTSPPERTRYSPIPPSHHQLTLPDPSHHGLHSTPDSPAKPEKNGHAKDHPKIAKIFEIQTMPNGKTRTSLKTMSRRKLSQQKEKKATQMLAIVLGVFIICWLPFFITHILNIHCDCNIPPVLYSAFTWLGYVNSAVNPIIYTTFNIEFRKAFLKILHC

[4] = molecular target: human dopamine D3 receptor (Homo sapiens, UniProt P35462); assay: Human dopamine D3 receptor radioligand binding assay (Eurofins); conditions: for % Inhibition at 10 μM D3: [3H]Spiperone binding, Eurofins Discovery
human dopamine D3 receptor, sequence (P35462 whole entry): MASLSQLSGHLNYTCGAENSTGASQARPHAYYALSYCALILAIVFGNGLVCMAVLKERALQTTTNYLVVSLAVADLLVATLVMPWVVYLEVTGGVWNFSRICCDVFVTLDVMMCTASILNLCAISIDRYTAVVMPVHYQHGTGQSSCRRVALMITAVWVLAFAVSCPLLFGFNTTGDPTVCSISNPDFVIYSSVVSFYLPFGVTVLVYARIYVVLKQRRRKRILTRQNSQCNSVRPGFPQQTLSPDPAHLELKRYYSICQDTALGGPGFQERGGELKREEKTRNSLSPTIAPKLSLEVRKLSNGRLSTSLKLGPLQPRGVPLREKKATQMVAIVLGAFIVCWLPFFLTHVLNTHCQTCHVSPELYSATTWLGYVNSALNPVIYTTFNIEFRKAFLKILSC

[5] = molecular target: human dopamine D1 receptor (Homo sapiens, UniProt P21728); assay: Human dopamine D1 receptor radioligand binding assay (Eurofins); conditions: for % Inhibition at 10 μM D1: [3H]SCH-23390 binding, Eurofins Discovery
human dopamine D1 receptor, sequence (P21728 whole entry): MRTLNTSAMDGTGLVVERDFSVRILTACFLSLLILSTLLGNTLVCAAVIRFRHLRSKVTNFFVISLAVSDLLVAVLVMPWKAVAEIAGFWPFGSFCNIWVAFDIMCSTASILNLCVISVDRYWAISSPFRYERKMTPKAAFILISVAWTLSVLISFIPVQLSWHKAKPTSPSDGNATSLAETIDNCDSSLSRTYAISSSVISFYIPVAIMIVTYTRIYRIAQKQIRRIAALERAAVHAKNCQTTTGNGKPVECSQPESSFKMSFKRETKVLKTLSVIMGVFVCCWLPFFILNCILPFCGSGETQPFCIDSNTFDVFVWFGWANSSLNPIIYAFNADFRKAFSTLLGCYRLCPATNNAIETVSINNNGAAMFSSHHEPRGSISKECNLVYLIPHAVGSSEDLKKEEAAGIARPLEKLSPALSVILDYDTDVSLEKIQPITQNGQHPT

[6] = Plasma protein binding, equilibrium dialysis, human plasma; format: in vitro ADME
[7] = Plasma protein binding, equilibrium dialysis, rat plasma; format: in vitro ADME
[8] = Microsomal stability, human hepatic microsomes; format: in vitro ADME; conditions: predicted hepatic clearance
[9] = Microsomal stability, rat hepatic microsomes; format: in vitro ADME; conditions: predicted hepatic clearance
[10] = Kinetic solubility (shake flask, McIlvaine buffer); format: physicochemical; conditions: for Solubility pH = 2.2 / Solubility pH = 6.8: kinetic, 100 µM, 18 hours room temperature; for Solubility pH = 2.2: McIlvaine buffer pH 2.2; for Solubility pH = 6.8: McIlvaine buffer pH 6.8; for solubility at 18 h: McIlvaine buffer, kinetic from dmso stock
[11] = In vivo pharmacokinetics, intravenous cassette dosing in rats; design: species or system male Sprague-Dawley rats; conditions: rat; for AUC (area under the curve) / CLp (plasma clearance) / Vss (volume of distribution at steady-state) / t1/2 (terminal phase plasma half-life): intravenous 0.2 mg/kg, cassette; for in vivo clearance relative to hepatic blood flow (superhepatic clearance): intravenous dosing
[12] = read-out: D4.4 IC50, Eurofins Discovery
[13] = read-out: D4.4 Ki, Eurofins Discovery

| Compound | % Inhibition at 10 μM D4.4 ([1]; Eurofins Discovery) [%] | IC50 [1, 12] [nM] | Ki [1, 13] [nM] | % Inhibition at 10 μM D2S [2] [%] | % Inhibition at 10 μM D2L [3] [%] | % Inhibition at 10 μM D3 [4] [%] | % Inhibition at 10 μM D1 [5] [%] | Solubility pH = 2.2 [10] [µM] | Solubility pH = 6.8 [10] [µM] | other results |
| --- | --- | --- | --- | --- | --- | --- | --- | --- | --- | --- |
| Cc1ccc(C(=O)N2CC3(CCN(Cc4c[nH]c5cc(F)ccc45)CC3C)C2)cc1C (stereo not drawn) [Compound 13] | 85 | 990 | 270 | – | – | – | – | 90.5 | 88.2 | – |
| Cc1ccc(C(=O)N2CC3(CCN(Cc4c[nH]c5cc(F)ccc45)CC3)C2)cc1C [Compound 5] | 94 | 200 | 56 | 25 | 24 | 27 | 35 | 83.4 | 87.0 | – |
| Cc1ccc(C(=O)N2CC3(CCN(Cc4cn(C)c5ccccc45)CC3)C2)cc1C [Compound 12] | – | – | – | – | – | – | – | – | – | IC50 [1]: 280 nM; Ki [1]: 76 nM; inhibition at 10 µM [1]: 92%; inhibition at 10 µM ([2]; read-out: % Inhibition at 10 μM D2S): 24%; inhibition at 10 µM ([3]; read-out: % Inhibition at 10 μM D2L): 16%; inhibition at 10 µM ([4]; read-out: % Inhibition at 10 μM D3): 19%; inhibition at 10 µM ([5]; read-out: % Inhibition at 10 μM D1): 27%; solubility at 18 h ([10]; pH 2.2, aqueous buffer): 88.3 µM (≈ 35.5 µg/mL); solubility at 18 h ([10]; pH 6.8, aqueous buffer): 87.4 µM (≈ 35.1 µg/mL) |
| COc1ncc(CN2CCC3(CC2)CN(C(=O)c2ccc(C)c(C)c2)C3)cc1F [Compound 10] | – | – | – | – | – | – | – | – | – | inhibition at 10 µM [1]: 66% |
| Cc1ccc(C(=O)N2CC3(CCN(Cc4n[nH]c5cc(F)ccc45)CC3)C2)cc1C [Compound 6] | 90 | 150 | 43 | 15 | 3 | 25 | −4 | 89.4 | 83.1 | – |
| Cc1ccc(C(=O)N2CCC3(CCN(Cc4c[nH]c5cc(F)ccc45)CC3)C2)cc1C [Compound 42, (3,4-dimethylphenyl)(8-[(6-fluoro-1H-indol-3-yl)methyl)-2,8-diazaspiro[4.5]decan-2-yl)methanone] | – | – | – | – | – | – | – | – | – | % Inhibition at D4.4 ([1]; screened at Eurofins): 44% |
| Cc1ccc(C(=O)N2CC3(CCN(Cc4c[nH]c5cc(F)ccc45)C(C)C3)C2)cc1C (stereo not drawn) [Compound 14] | 89 | 1920 | 530 | – | – | – | – | – | – | – |
| Cc1ccc(C(=O)N2CC3(CCN(Cc4ccc(F)c(F)c4)CC3)C2)cc1C [Compound 4] | 88 | 2790 | 250 | 8 | 9 | 9 | 21 | 95.3 | 88.9 | fu,plasma human (fraction unbound) [6]: 0.01; fu,plasma rat (fraction unbound) [7]: 0.03; CLH human (hepatic clearance) [8]: 16.9 mL/min/kg; CLH rat (hepatic clearance) [9]: 59.1 mL/min/kg; AUC (area under the curve) [11]: 28.7 ng·h/mL; CLp (plasma clearance) [11]: 116 mL/min/kg; Vss (volume of distribution at steady-state) [11]: 5.52 L/kg; t1/2 (terminal phase plasma half-life) [11]: 1.05 h; in vivo clearance relative to hepatic blood flow (superhepatic clearance) [11]: > 100 % Qh |
| O=C(c1ccc(Cl)cc1Cl)N1CC2(CCN(Cc3c[nH]c4cc(F)ccc34)CC2)C1 [Compound 19] | 92 | 82 | 23 | 14 | 23 | 30 | 21 | – | – | – |
| Cc1ccc(C(=O)N2CC3(CCN(Cc4ccc(Cl)c(Cl)c4)CC3)C2)cc1C [Compound 9] | 91 | 81 | 22 | 25 | 24 | 62 | 24 | 84.2 | 31.6 | – |
| Cc1ccc(S(=O)(=O)N2CC3(CCN(Cc4c[nH]c5cc(F)ccc45)CC3)C2)cc1 [Compound 34] | 94 | 120 | 33 | 17 | 50 | 49 | 47 | – | – | – |

Now from value to molecule, other results behind:

| % Inhibition at 10 μM D4.4 ([1]; Eurofins Discovery) [%] | IC50 [1, 12] [nM] | Ki [1, 13] [nM] | % Inhibition at 10 μM D2S [2] [%] | % Inhibition at 10 μM D2L [3] [%] | % Inhibition at 10 μM D3 [4] [%] | % Inhibition at 10 μM D1 [5] [%] | Solubility pH = 2.2 [10] [µM] | Solubility pH = 6.8 [10] [µM] | Compound | other results |
| --- | --- | --- | --- | --- | --- | --- | --- | --- | --- | --- |
| 92 | 490 | 140 | 18 | 18 | 12 | 10 | 91.2 | 87.0 | Cc1cccc(C(=O)N2CC3(CCN(Cc4c[nH]c5cc(F)ccc45)CC3)C2)c1 [Compound 32] | fu,plasma human (fraction unbound) [6]: 0.06; fu,plasma rat (fraction unbound) [7]: 0.14; CLH human (hepatic clearance) [8]: 14.7 mL/min/kg; CLH rat (hepatic clearance) [9]: 46.2 mL/min/kg |
| 99 | 62 | 17 | 5 | 20 | 13 | 27 | 91.9 | 85.3 | Cc1ccc(C(=O)N2CC3(CCN(Cc4c[nH]c5cc(F)ccc45)CC3)C2)cc1 [Compound 29] | fu,plasma human (fraction unbound) [6]: 0.05; fu,plasma rat (fraction unbound) [7]: 0.15; CLH human (hepatic clearance) [8]: 17.3 mL/min/kg; CLH rat (hepatic clearance) [9]: 49.2 mL/min/kg |
| 95 | 84 | 23 | 12 | 18 | 14 | 16 | 86.4 | 82.7 | O=C(c1ccc2c(c1)OCO2)N1CC2(CCN(Cc3c[nH]c4cc(F)ccc34)CC2)C1 [Compound 20] | fu,plasma human (fraction unbound) [6]: 0.10; fu,plasma rat (fraction unbound) [7]: 0.23; CLH human (hepatic clearance) [8]: 13.7 mL/min/kg; CLH rat (hepatic clearance) [9]: 36.2 mL/min/kg; AUC (area under the curve) [11]: 26.4 ng·h/mL; CLp (plasma clearance) [11]: 126 mL/min/kg; Vss (volume of distribution at steady-state) [11]: 44.4 L/kg; t1/2 (terminal phase plasma half-life) [11]: 4.55 h; in vivo clearance relative to hepatic blood flow (superhepatic clearance) [11]: > 100 % Qh |
| 49 | – | – | – | – | – | – | – | – | O=C(c1cc(Cl)cc(Cl)c1)N1CC2(CCN(Cc3c[nH]c4cc(F)ccc34)CC2)C1 [Compound 28] | – |
